Measurements from ChEMBL document CHEMBL1146304, “Alpha-methyltryptamine sulfonamide derivatives as novel glucocorticoid receptor ligands” (Bioorg Med Chem Lett, 2007).

Columns and labels:
Glucocorticoid receptor = target: T1, Glucocorticoid receptor (Homo sapiens, UniProt P04150)
T1 sequence (P04150 whole entry): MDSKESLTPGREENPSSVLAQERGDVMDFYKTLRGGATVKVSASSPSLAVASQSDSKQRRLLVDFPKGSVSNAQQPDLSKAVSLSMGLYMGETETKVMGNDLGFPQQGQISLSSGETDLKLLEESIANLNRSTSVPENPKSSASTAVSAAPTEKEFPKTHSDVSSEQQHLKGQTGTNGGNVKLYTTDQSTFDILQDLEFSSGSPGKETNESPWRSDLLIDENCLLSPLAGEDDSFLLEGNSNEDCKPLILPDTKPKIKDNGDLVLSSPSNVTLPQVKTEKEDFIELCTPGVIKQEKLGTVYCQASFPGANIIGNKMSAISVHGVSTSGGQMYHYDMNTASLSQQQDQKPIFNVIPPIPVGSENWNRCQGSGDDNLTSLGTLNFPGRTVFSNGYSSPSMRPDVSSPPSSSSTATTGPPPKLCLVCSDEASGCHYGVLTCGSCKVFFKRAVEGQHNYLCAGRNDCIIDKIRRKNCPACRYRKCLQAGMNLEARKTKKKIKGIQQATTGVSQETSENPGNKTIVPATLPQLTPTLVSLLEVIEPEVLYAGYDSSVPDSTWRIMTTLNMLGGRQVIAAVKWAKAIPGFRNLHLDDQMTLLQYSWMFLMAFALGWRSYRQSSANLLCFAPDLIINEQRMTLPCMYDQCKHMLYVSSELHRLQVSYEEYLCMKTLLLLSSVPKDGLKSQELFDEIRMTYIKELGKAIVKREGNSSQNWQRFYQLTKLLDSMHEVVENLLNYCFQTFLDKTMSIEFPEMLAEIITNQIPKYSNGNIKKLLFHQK

Progesterone receptor = target: T2, Progesterone receptor (Homo sapiens, UniProt P06401); test: Inhibition of human PR
T2 sequence (P06401 whole entry): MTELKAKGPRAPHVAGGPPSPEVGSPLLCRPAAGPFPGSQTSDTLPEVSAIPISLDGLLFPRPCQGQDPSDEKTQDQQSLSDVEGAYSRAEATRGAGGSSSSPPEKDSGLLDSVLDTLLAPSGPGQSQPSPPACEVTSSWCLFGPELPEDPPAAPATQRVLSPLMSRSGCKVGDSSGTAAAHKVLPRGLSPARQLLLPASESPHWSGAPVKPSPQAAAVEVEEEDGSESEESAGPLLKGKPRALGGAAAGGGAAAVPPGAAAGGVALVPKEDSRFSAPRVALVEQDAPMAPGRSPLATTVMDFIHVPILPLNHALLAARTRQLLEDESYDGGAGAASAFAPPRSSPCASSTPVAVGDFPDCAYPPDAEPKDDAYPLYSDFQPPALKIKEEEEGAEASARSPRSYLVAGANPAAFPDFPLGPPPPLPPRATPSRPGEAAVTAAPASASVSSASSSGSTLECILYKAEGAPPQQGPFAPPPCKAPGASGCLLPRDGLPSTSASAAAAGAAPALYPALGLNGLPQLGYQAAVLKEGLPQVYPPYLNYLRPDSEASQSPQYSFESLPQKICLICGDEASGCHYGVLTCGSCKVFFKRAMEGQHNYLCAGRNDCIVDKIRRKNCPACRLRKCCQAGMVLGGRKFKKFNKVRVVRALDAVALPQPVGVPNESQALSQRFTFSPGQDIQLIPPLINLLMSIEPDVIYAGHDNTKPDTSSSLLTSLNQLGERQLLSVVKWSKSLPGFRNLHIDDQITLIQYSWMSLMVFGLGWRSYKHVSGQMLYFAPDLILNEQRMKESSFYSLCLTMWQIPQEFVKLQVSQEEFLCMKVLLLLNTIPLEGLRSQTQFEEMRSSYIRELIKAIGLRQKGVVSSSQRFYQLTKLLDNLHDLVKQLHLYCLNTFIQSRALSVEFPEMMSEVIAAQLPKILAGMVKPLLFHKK

[1] = target: T3, Mineralocorticoid receptor (Homo sapiens, UniProt P08235); test: Inhibition of human MR
T3 sequence (P08235 whole entry): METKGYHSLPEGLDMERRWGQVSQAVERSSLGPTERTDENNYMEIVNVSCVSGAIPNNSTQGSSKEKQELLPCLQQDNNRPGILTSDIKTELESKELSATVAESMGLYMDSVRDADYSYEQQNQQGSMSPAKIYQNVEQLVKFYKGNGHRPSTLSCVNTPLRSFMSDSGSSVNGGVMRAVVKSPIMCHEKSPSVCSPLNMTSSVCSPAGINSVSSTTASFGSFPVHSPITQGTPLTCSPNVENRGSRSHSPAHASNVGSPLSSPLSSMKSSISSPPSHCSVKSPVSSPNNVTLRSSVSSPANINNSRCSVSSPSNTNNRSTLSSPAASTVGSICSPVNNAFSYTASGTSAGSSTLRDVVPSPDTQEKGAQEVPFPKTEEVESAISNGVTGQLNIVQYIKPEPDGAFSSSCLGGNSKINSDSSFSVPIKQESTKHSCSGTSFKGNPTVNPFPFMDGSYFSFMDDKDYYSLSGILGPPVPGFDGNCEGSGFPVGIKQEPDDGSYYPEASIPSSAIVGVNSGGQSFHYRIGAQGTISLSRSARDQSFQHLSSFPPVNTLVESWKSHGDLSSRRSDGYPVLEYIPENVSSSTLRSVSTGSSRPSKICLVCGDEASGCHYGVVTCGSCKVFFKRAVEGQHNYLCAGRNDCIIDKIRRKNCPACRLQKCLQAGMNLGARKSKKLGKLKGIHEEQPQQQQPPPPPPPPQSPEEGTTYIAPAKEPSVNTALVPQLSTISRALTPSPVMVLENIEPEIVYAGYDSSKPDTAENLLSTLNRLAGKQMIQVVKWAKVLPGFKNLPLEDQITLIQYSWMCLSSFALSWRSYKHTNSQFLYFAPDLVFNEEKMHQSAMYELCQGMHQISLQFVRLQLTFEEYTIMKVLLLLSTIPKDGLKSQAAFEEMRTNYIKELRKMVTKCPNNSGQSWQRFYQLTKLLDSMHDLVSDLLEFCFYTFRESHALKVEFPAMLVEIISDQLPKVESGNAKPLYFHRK

Homo sapiens [2] = species on record: Homo sapiens; test: Selectivity for human glucocorticoid receptor over human mineralocorticoid receptor
Homo sapiens [3] = species on record: Homo sapiens; test: Selectivity for human glucocorticoid receptor over human progesterone receptor

Row | SMILES | IC50 (Glucocorticoid receptor) | further results
1 | CC(Cc1c[nH]c2ccccc12)NC(=O)Nc1c(Cl)cc(Cl)cc1Cl (stereo unspecified) | > 2000 nM | 
2 | CC(Cc1c[nH]c2ccccc12)NS(=O)(=O)c1cc(Cl)cc(Cl)c1O (stereo unspecified) | > 10000 nM | 
3 | COc1ccc2[nH]cc(CC(C)NS(=O)(=O)c3c(Cl)cc(Cl)cc3Cl)c2c1 (stereo unspecified) | > 2000 nM | 
4 | CC(Cc1c[nH]c2ccccc12)NS(=O)(=O)c1cccc(C#N)c1 (stereo unspecified) | > 10000 nM | 
5 | Cc1cc(C)c(S(=O)(=O)NC(C)Cc2c[nH]c3cc(F)ccc23)c(C)c1 (stereo unspecified) | 79 nM | 
6 | Cc1cc(C)c(S(=O)(=O)NC(C)Cc2c[nH]c3ccc(F)cc23)c(C)c1 (stereo unspecified) | 65 nM | 
7 | CC(Cc1c[nH]c2ccccc12)NS(=O)(=O)c1ccc(C(C)(C)C)cc1 (stereo unspecified) | 735 nM | IC50 (Progesterone receptor): > 2000 nM; IC50 [1]: 1070 nM
8 | Cc1cc(C)c(S(=O)(=O)N[C@@H](C)Cc2c[nH]c3ccccc23)c(C)c1 | 29 nM | Ratio IC50 (Homo sapiens [2]): 34; IC50 (Progesterone receptor): 1200 nM; IC50 [1]: 1000 nM
9 | CC(Cc1c[nH]c2ccccc12)NS(=O)(=O)c1c(Cl)cc(Cl)cc1Cl (stereo unspecified) | 64 nM | Ratio IC50 (Homo sapiens [3]): 8; IC50 (Progesterone receptor): 570 nM; IC50 [1]: 130 nM
10 | CC(Cc1c[nH]c2ccccc12)NS(=O)(=O)c1ccccc1Cl (stereo unspecified) | 4100 nM | 
11 | CC(Cc1c[nH]c2ccccc12)NS(=O)(=O)c1ccc(-c2ccccc2)cc1 (stereo unspecified) | 2600 nM | 
12 | Cc1cc(C)c(S(=O)(=O)N[C@H](C)Cc2c[nH]c3ccccc23)c(C)c1 | > 2000 nM | IC50 (Progesterone receptor): > 2000 nM; IC50 [1]: 520 nM
13 | CC(Cc1c[nH]c2ccccc12)NS(=O)(=O)c1ccc(C(C)C)cc1 (stereo unspecified) | 750 nM | IC50 (Progesterone receptor): 1000 nM; IC50 [1]: 1400 nM
14 | Cc1cc(C)c(S(=O)(=O)NC(C)Cc2c[nH]c3ccccc23)c(C)c1 (stereo unspecified) | 40 nM | Ratio IC50 (Homo sapiens [3]): 35; Ratio IC50 (Homo sapiens [2]): 7; IC50 (Progesterone receptor): 1400 nM; IC50 [1]: 290 nM
15 | CC(Cc1c[nH]c2ccccc12)NS(=O)(=O)c1ccc([N+](=O)[O-])cc1 (stereo unspecified) | > 10000 nM | 
16 | Cc1cc(C)c(S(=O)(=O)N(C)C(C)Cc2c[nH]c3ccccc23)c(C)c1 (stereo unspecified) | 1300 nM | 
17 | CC(Cc1c[nH]c2ccccc12)NS(=O)(=O)c1c(C(C)C)cc(C(C)C)cc1C(C)C (stereo unspecified) | 67 nM | IC50 (Progesterone receptor): > 2000 nM; IC50 [1]: > 2000 nM
18 | CC(Cc1c[nH]c2ccccc12)NS(=O)(=O)c1ccccc1 (stereo unspecified) | > 10000 nM | 
19 | CC(=O)Nc1ccc(S(=O)(=O)NC(C)Cc2c[nH]c3ccccc23)cc1 (stereo unspecified) | > 10000 nM | 
20 | CC(Cc1c[nH]c2ccccc12)NS(=O)(=O)c1ccc(Cl)c(Cl)c1Cl (stereo unspecified) | 1900 nM | 
21 | CC(Cc1cn(C)c2ccccc12)NS(=O)(=O)c1c(Cl)cc(Cl)cc1Cl (stereo unspecified) | > 2000 nM | 
22 | CC(Cc1c[nH]c2ccccc12)NS(=O)(=O)c1cc(Cl)cc(Cl)c1 (stereo unspecified) | 4600 nM | 
23 | Cc1cc(C)c(CNC(C)Cc2c[nH]c3ccccc23)c(C)c1 (stereo unspecified) | > 2000 nM | 
24 | C[C@@H]1C[C@H]2[C@@H]3CCC4=CC(=O)C=C[C@]4(C)[C@@]3(F)[C@@H](O)C[C@]2(C)[C@@]1(O)C(=O)CO [DEXAMETHASONE] |  | IC50 (Progesterone receptor): > 2000 nM
25 | COc1ccc(S(=O)(=O)NC(C)Cc2c[nH]c3ccccc23)cc1 (stereo unspecified) | > 10000 nM | 
26 | Cc1cc(C)c(S(=O)(=O)NC(C)Cc2c[nH]c3c(C)cccc23)c(C)c1 (stereo unspecified) | 120 nM | 

Row | SMILES | IC50 (Glucocorticoid receptor) | further results
27 | Cc1cccc(Cl)c1S(=O)(=O)NC(C)Cc1c[nH]c2ccccc12 (stereo unspecified) | 280 nM | 
28 | Cc1[nH]c2ccccc2c1CC(C)NS(=O)(=O)c1c(Cl)cc(Cl)cc1Cl (stereo unspecified) | 570 nM | 
29 | CC(Cc1c[nH]c2ccccc12)NS(=O)(=O)c1ccc(Cl)cc1 (stereo unspecified) | 2100 nM | 
30 | Cc1c(Cl)cccc1S(=O)(=O)NC(C)Cc1c[nH]c2ccccc12 (stereo unspecified) | 820 nM | 
31 | COC(=O)[C@@H](Cc1c[nH]c2ccccc12)NS(=O)(=O)c1c(C)cc(C)cc1C | > 2000 nM | 
32 | CCC(Cc1c[nH]c2ccccc12)NS(=O)(=O)c1c(Cl)cc(Cl)cc1Cl (stereo unspecified) | 64 nM | 
33 | CC(Cc1c[nH]c2ccccc12)NS(=O)(=O)c1cc(Cl)ccc1Cl (stereo unspecified) | 1300 nM | 
34 | CC(Cc1c[nH]c2ccccc12)NS(=O)(=O)c1cc(Cl)c(Cl)cc1Cl (stereo unspecified) | 990 nM | IC50 (Progesterone receptor): 440 nM; IC50 [1]: 1000 nM
35 | CC(Cc1c[nH]c2ccccc12)NS(=O)(=O)c1ccc(Cl)cc1Cl (stereo unspecified) | 480 nM | IC50 (Progesterone receptor): > 2000 nM; IC50 [1]: 850 nM
36 | CC(Cc1c[nH]c2ccccc12)NS(=O)(=O)c1cccc(Cl)c1 (stereo unspecified) | 4100 nM | 
37 | CC(Cc1c[nH]c2ccccc12)NS(=O)(=O)c1c(Cl)cccc1Cl (stereo unspecified) | 240 nM | Ratio IC50 (Homo sapiens [2]): 6; IC50 (Progesterone receptor): 170 nM; IC50 [1]: 1600 nM
38 | CC(Cc1c[nH]c2ccccc12)NS(=O)(=O)c1ccc(Cl)c(Cl)c1 (stereo unspecified) | 6900 nM | 
39 | Cc1cc(C)c(S(=O)(=O)NCCc2c[nH]c3ccccc23)c(C)c1 | > 2000 nM | 
40 | Cc1cc(C)c(S(=O)(=O)NC(C)Cc2c[nH]c3cc(C)ccc23)c(C)c1 (stereo unspecified) | 490 nM | 
41 | CC(Cc1c[nH]c2ccccc12)NS(=O)(=O)c1cccc(Cl)c1Cl (stereo unspecified) | 1200 nM | 
42 | CC(Cc1c[nH]c2ccccc12)NS(=O)(=O)c1ccccc1[N+](=O)[O-] (stereo unspecified) | > 10000 nM | 
43 | COC(=O)[C@H](Cc1c[nH]c2ccccc12)NS(=O)(=O)c1c(C)cc(C)cc1C | > 2000 nM | 
44 | CCCc1ccc(S(=O)(=O)NC(C)Cc2c[nH]c3ccccc23)cc1 (stereo unspecified) | 1600 nM | 
45 | Cc1cc(C)c(S(=O)(=O)NC(CO)Cc2c[nH]c3ccccc23)c(C)c1 (stereo unspecified) | > 2000 nM | 
46 | CC(Cc1c[nH]c2ccccc12)NS(=O)(=O)c1cc(F)c(Br)cc1F (stereo unspecified) | 3600 nM | 
47 | Cc1ccc(S(=O)(=O)NC(C)Cc2c[nH]c3ccccc23)cc1 (stereo unspecified) | 5700 nM | 
48 | Cc1cc(C)c(S(=O)(=O)NC(C)Cc2cc3ccccc3[nH]2)c(C)c1 (stereo unspecified) | > 2000 nM | 
49 | Cc1cc(C)c(C(=O)NC(C)Cc2c[nH]c3ccccc23)c(C)c1 (stereo unspecified) | > 2000 nM | 
50 | Cc1cc(S(=O)(=O)NC(C)Cc2c[nH]c3ccccc23)c(C)cc1Cl (stereo unspecified) | 1800 nM | 
51 | Cc1cccc(S(=O)(=O)NC(C)Cc2c[nH]c3ccccc23)c1 (stereo unspecified) | > 10000 nM | 
